{
  "source": "patent US20250214981A1",
  "about": "“COMPOUND AND APPLICATION THEREOF IN PREPARATION OF MEDICINE FOR TREATING ENTEROVIRUS-RELATED DISEASES” (priority 2022, published 2025)",
  "origin": "cited, not measured here",
  "key": {"[1]": {"test_system": "mammalian cysteine and serine proteases, including cathepsin B, elastase, chymotrypsin, trypsin, thrombin, and calpain"}, "[2]": {"test_system": "human rhinovirus serotypes"}, "[3]": {"details": "in vivo"}},
  "data": [
    {"smiles": "CCOC(=O)/C=C/[C@H](C[C@@H]1CCNC1=O)NC(=O)[C@@H](CC(=O)[C@@H](NC(=O)c1cc(C)on1)C(C)C)Cc1ccc(F)cc1", "note": "[AG7088]", "values": [
      {"measurement": "inhibitory activity against mammalian cysteine and serine proteases", "setting": "[1]", "result": "negligible inhibitory activity"},
      {"measurement": "antiviral activity against a variety of human rhinovirus serotypes", "setting": "[2]", "result": "significant antiviral activity"},
      {"measurement": "bioavailability", "setting": "[3]", "result": "low bioavailability"}
    ]}
  ]
}
